According to patent US20070128217A1 (priority 2003, published 2007):

Assays:
[1] = system: rabbit serum obtained by immunizing a rabbit with the SARS-CoV strain Frankfurt 1; type: binding; parameters: Binding of a rabbit serum to linear peptides / Binding of a rabbit serum to looped peptides / Rabbit serum linear peptides / Rabbit serum looped peptides / Binding of a rabbit serum to linear peptides of protein N of SARS-CoV Urbani (Rabbit serum linear peptides) / Binding of a rabbit serum to looped/cyclic peptides of protein N of SARS-CoV Urbani (Rabbit serum looped peptides): unit not given here
[2] = system: control sera (pooled serum of ten healthy LUMC hospital workers; commercial negative donor pooled serum from the Dutch bloodbank); type: binding, human; parameters: Binding of Control serum LUMC to linear peptides / Binding of Control serum Blood-bank to linear peptides / Binding of Control serum LUMC to looped peptides / Binding of Control Serum Blood-Bank to Looped peptides / Binding of Control serum LUMC to linear peptides of the protein M of SARS-CoV Urbani / Binding of Control serum Blood-bank to linear peptides of the protein M of SARS-CoV Urbani / Binding of Control serum LUMC to looped peptides of the protein M of SARS-CoV Urbani / Binding of Control Serum Blood-Bank to Looped peptides of the protein M of SARS-CoV Urbani: unit not given here
[3] = system: recombinant human anti-SARS-CoV antibody 03-018; type: binding; parameters: Binding of antibody 03-018 to linear peptides of the N protein of SARS-CoV Urbani / Binding of antibody 03-018 to looped/cyclic peptides of the N protein of SARS-CoV Urbani: unit not given here
[4] = system: antibodies in sera from SARS patients (sera 1a, 1b, 2, 6, 37, 62, London, SARS-yellow, SARS-green); type: binding, human; parameters: Binding of serum 6 to linear peptides of protein X1 of SARS-CoV Urbani / Binding of serum 37 to linear peptides of protein X1 of SARS-CoV Urbani / Binding of serum 6 to looped/cyclic peptide (PEPSCAN-ELISA) / Binding of serum 37 to looped/cyclic peptide (PEPSCAN-ELISA) / Binding of serum 37 to looped/cyclic peptides of protein X1 of SARS-CoV Urbani / Binding of serum 6 to linear peptides of protein X2 / Binding of serum 37 to linear peptides of protein X2 / Binding of serum 37 to looped/cyclic peptides of protein X2 of SARS-CoV Urbani / Binding of serum 6 to linear peptides of protein M of SARS-CoV Urbani / Binding of serum 37 to linear peptides of protein M of SARS-CoV Urbani / Binding of serum 6 to looped/cyclic peptides of protein M of SARS-CoV Urbani / Binding of serum 37 to looped/cyclic peptides of protein M of SARS-CoV Urbani / Binding of serum 6 to linear peptides of protein X3 of SARS-CoV Urbani / Binding of serum 37 to linear peptides of protein X3 of SARS-CoV Urbani / Binding of serum 37 to looped/cyclic peptides of protein X3 of SARS-CoV Urbani / Binding of serum 6 to linear peptides of protein X4 of SARS-CoV Urbani / Binding of serum 37 to linear peptides of protein X4 of SARS-CoV Urbani / Binding of serum 37 to looped/cyclic peptides of protein X4 of SARS-CoV Urbani / Binding of serum 6 to linear peptides of protein X5 of SARS-CoV Urbani / Binding of serum 37 to linear peptides of protein X5 of SARS-CoV Urbani / Binding of serum 37 to looped/cyclic peptides of protein X5 of SARS-CoV Urbani / Binding of serum 6 to linear peptides of protein N of SARS-CoV Urbani / Binding of serum 37 to linear peptides of protein N of SARS-CoV Urbani / Binding of serum 6 to linear peptide (PEPSCAN-ELISA) / Binding of serum 1a to looped/cyclic peptides of protein N of SARS-CoV Urbani / Binding of serum 1b to looped/cyclic peptides of protein N of SARS-CoV Urbani / Binding of serum 2 to looped/cyclic peptides of protein N of SARS-CoV Urbani / Binding of serum 6 to looped/cyclic peptides of protein N of SARS-CoV Urbani / Binding of serum 37 to looped/cyclic peptides of protein N of SARS-CoV Urbani / Binding of serum 62 to looped/cyclic peptides of protein N of SARS-CoV Urbani / Binding of serum London to looped/cyclic peptides of protein N of SARS-CoV Urbani / Binding of serum SARS-green to looped/cyclic peptides of protein N of SARS-CoV Urbani: unit not given here

Sequence	Binding of a rabbit serum to linear peptides of protein N of SARS-CoV Urbani (Rabbit serum linear peptides) [1]	Binding of a rabbit serum to looped/cyclic peptides of protein N of SARS-CoV Urbani (Rabbit serum looped peptides) [1]	Binding of Control Serum Blood-Bank to Looped peptides [2]	Binding of Control serum Blood-bank to linear peptides [2]	Binding of Control serum LUMC to linear peptides [2]	Binding of Control serum LUMC to looped peptides [2]	Binding of antibody 03-018 to linear peptides of the N protein of SARS-CoV Urbani [3]	Binding of antibody 03-018 to looped/cyclic peptides of the N protein of SARS-CoV Urbani [3]	Binding of serum 1a to linear peptides of protein N of SARS-CoV Urbani [4]	Binding of serum 1a to looped/cyclic peptides of protein N of SARS-CoV Urbani [4]	Binding of serum 1b to linear peptides of protein N of SARS-CoV Urbani [4]	Binding of serum 1b to looped/cyclic peptides of protein N of SARS-CoV Urbani [4]	Binding of serum 2 to linear peptides of protein N of SARS-CoV Urbani [4]	Binding of serum 2 to looped/cyclic peptides of protein N of SARS-CoV Urbani [4]	Binding of serum 6 to looped/cyclic peptides of protein N of SARS-CoV Urbani [4]	Binding of serum 37 to looped/cyclic peptides of protein N of SARS-CoV Urbani [4]	Binding of serum 62 to looped/cyclic peptides of protein N of SARS-CoV Urbani [4]	Binding of serum London to looped/cyclic peptides of protein N of SARS-CoV Urbani [4]	Binding of serum SARS-green to looped/cyclic peptides of protein N of SARS-CoV Urbani [4]	Binding of serum SARS-yellow to looped/cyclic peptides of protein N of SARS-CoV Urbani [4]	also measured
GGDGKMKELSPRWYF	0.1	0.5	0.8	0.8	0.7	0.7	0.1	0.2	0.3	0.3	0.1	0.2	0.2	0.6	0.3	0.6	0.6	0.5	0.5	0.6	Binding of serum 6 to linear peptides of protein N of SARS-CoV Urbani [4]: 0.2; Binding of serum 37 to linear peptides of protein N of SARS-CoV Urbani [4]: 0.6; Binding of serum 62 to linear peptides of protein N of SARS-CoV Urbani [4]: 0.7; Binding of serum London to linear peptides of protein N of SARS-CoV Urbani [4]: 0.4; Binding of serum SARS-green to linear peptides of protein N of SARS-CoV Urbani [4]: 0.2; Binding of serum SARS-yellow to linear peptides of protein N of SARS-CoV Urbani [4]: 0.7
GRRGPEQTQGNFGDQ	0.1	0.2	0.6	0.6	0.6	0.6	0.1	0.2		0.4		0.3		0.4	0.2	0.5	0.6	0.5	0.4	0.5	Recognition of the peptide by sera of SARS-CoV infected individuals, and form (linear, looped/cyclic) in which it is recognized [4]: recognized in linear form
YKHWPQIAQFAPSAS	0.1	0.5					0.1	0.2	0.3	0.5	0.1	0.3	0.2	0.5	0.3	0.7	0.7	0.5	0.4	0.6	Control Serum Blood-Bank Looped peptides [2]: 0.8; Control serum Blood-bank linear peptides [2]: 0.9; Control serum LUMC linear peptides [2]: 0.7; Control serum LUMC looped peptides [2]: 0.8; Binding of serum 6 to linear peptides of protein N of SARS-CoV Urbani [4]: 0.2; Binding of serum 37 to linear peptides of protein N of SARS-CoV Urbani [4]: 0.8; Binding of serum 62 to linear peptides of protein N of SARS-CoV Urbani [4]: 0.7; Binding of serum London to linear peptides of protein N of SARS-CoV Urbani [4]: 0.6; Binding of serum SARS-green to linear peptides of protein N of SARS-CoV Urbani [4]: 0.4; Binding of serum SARS-yellow to linear peptides of protein N of SARS-CoV Urbani [4]: 0.7
KQRRPQGLPNNTASW	0.1	0.6	0.6	0.7	0.5	0.6	0.1	0.2	0.2	0.4	0.1	0.2	0.2	0.4	0.4	0.6	0.5	0.6	0.3	0.7	Binding of serum 6 to linear peptides of protein N of SARS-CoV Urbani [4]: 0.1; Binding of serum 37 to linear peptides of protein N of SARS-CoV Urbani [4]: 0.7; Binding of serum 62 to linear peptides of protein N of SARS-CoV Urbani [4]: 0.6; Binding of serum London to linear peptides of protein N of SARS-CoV Urbani [4]: 0.4; Binding of serum SARS-green to linear peptides of protein N of SARS-CoV Urbani [4]: 0.3; Binding of serum SARS-yellow to linear peptides of protein N of SARS-CoV Urbani [4]: 0.5
GNFGDQDLIRQGTDY	0.2	0.5	0.9	0.7	0.6	0.9	0.1	0.2		0.5		0.3		0.5	0.3	0.8	0.8	0.5	0.7	0.6	Binding of serum 1a to linear peptide (PEPSCAN-ELISA) [4]: 0.3; Binding of serum 1b to linear peptide (PEPSCAN-ELISA) [4]: 0.2; Binding of serum 2 to linear peptide (PEPSCAN-ELISA) [4]: 0.2; Binding of serum 6 to linear peptide (PEPSCAN-ELISA) [4]: 0.2; Binding of serum 37 to linear peptide (PEPSCAN-ELISA) [4]: 0.8; Binding of serum 62 to linear peptide (PEPSCAN-ELISA) [4]: 0.7; Binding of serum London to linear peptide (PEPSCAN-ELISA) [4]: 0.6; Binding of serum SARS-green to linear peptide (PEPSCAN-ELISA) [4]: 0.5; Binding of serum SARS-yellow to linear peptide (PEPSCAN-ELISA) [4]: 0.8
